Patent publication US12516056B2, “Compounds for inhibition of janus kinase 1” (MANKIND PHARMA LTD., priority 2019, dated 2026)
Where a name gives a salt, the structure may show the parent alone. Read-outs that look alike come from different tables or passages of the source.

How the values were obtained:
[1] = molecular target: T1, Recombinant JAK1 (Homo sapiens, UniProt P23458); test: JAK biochemical assay (LANCE Ultra TR-FRET), JAK1; settings: recombinant JAK1, TR-FRET; read-out: Biochemical Assay (μM) JAK1
T1 construct: purchased Carna Biosciences
T1 sequence (P23458 whole entry): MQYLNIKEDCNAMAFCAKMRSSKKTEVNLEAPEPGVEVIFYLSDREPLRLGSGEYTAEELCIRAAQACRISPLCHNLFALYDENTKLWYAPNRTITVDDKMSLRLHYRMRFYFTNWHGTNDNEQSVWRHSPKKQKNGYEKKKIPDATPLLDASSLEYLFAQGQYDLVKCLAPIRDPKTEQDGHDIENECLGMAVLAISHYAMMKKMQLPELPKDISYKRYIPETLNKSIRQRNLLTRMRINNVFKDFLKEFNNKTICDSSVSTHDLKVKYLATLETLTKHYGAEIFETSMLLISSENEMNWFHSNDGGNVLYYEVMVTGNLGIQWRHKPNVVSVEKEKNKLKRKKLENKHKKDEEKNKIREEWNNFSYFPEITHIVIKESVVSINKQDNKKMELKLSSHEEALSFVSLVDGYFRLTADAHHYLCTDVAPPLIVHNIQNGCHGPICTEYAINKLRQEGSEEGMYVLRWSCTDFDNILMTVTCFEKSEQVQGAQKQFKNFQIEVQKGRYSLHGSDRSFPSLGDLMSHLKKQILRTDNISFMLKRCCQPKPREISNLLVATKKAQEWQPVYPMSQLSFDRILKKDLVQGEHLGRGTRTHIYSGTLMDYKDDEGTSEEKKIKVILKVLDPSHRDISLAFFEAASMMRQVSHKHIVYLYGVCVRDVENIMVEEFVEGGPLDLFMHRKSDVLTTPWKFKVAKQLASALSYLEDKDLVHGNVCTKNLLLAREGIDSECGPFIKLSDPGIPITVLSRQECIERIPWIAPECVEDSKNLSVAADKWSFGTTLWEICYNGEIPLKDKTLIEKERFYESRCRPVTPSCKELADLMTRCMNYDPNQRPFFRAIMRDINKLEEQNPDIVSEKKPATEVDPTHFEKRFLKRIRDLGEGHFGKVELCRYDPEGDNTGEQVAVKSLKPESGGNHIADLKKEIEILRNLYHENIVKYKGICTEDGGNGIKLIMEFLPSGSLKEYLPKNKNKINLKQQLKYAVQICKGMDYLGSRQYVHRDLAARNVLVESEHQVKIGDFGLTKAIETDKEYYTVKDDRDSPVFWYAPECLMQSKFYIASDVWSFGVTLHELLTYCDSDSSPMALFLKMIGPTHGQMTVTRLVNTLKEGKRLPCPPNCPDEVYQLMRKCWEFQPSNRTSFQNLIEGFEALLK
Summary of the method: (§1)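 Kinase reactions ran in buffer of 50 mM HEPES pH 7.5 with 1 mM EGTA, 10 mM MgCl2, 2 mM DTT and 0.01% Tween-20, using recombinant enzyme. Phosphorylated ULight substrate was detected by TR-FRET, and compound effect expressed as % inhibition against vehicle.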

[2] = molecular target: T2, Recombinant JAK3 (Homo sapiens, UniProt P52333); test: JAK biochemical assay (LANCE Ultra TR-FRET), JAK3; settings: recombinant JAK3, TR-FRET; read-out: Biochemical Assay (μM) JAK3
T2 construct: purchased Carna Biosciences
T2 sequence (P52333 1-1124): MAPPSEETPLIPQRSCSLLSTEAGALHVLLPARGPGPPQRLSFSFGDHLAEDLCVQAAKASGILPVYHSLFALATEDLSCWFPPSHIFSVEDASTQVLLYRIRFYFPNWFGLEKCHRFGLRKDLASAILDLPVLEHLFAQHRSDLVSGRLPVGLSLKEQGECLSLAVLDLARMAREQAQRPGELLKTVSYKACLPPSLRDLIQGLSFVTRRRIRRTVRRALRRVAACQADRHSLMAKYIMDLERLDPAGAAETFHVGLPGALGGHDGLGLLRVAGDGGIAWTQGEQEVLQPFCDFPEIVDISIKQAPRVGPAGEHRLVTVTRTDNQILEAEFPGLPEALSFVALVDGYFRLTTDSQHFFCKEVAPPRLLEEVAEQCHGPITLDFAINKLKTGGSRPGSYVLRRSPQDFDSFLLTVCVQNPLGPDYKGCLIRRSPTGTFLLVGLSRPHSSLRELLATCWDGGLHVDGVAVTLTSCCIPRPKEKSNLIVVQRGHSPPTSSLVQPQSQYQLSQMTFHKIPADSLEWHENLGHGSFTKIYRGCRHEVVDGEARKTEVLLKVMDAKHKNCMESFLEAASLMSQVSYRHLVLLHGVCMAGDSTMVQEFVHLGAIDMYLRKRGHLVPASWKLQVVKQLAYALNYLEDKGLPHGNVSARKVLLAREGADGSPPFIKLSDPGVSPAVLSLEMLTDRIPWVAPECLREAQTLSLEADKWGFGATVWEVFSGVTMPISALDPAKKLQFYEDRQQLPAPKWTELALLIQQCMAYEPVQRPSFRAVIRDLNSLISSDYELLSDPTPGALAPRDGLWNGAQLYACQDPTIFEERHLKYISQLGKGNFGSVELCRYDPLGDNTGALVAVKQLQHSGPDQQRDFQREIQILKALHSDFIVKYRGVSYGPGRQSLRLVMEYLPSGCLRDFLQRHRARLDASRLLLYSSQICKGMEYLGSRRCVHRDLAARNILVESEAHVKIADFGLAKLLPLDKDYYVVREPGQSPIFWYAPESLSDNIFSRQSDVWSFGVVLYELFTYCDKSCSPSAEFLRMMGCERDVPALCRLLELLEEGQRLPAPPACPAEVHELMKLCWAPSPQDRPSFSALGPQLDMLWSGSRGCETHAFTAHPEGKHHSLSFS
Summary of the method: as §1

[3] = molecular target: T3, Recombinant JAK2 (Homo sapiens, UniProt O60674); test: JAK biochemical assay (LANCE Ultra TR-FRET), JAK2; settings: recombinant JAK2, TR-FRET; read-out: Biochemical Assay (μM) JAK2
T3 construct: purchased Carna Biosciences
T3 sequence (O60674 whole entry): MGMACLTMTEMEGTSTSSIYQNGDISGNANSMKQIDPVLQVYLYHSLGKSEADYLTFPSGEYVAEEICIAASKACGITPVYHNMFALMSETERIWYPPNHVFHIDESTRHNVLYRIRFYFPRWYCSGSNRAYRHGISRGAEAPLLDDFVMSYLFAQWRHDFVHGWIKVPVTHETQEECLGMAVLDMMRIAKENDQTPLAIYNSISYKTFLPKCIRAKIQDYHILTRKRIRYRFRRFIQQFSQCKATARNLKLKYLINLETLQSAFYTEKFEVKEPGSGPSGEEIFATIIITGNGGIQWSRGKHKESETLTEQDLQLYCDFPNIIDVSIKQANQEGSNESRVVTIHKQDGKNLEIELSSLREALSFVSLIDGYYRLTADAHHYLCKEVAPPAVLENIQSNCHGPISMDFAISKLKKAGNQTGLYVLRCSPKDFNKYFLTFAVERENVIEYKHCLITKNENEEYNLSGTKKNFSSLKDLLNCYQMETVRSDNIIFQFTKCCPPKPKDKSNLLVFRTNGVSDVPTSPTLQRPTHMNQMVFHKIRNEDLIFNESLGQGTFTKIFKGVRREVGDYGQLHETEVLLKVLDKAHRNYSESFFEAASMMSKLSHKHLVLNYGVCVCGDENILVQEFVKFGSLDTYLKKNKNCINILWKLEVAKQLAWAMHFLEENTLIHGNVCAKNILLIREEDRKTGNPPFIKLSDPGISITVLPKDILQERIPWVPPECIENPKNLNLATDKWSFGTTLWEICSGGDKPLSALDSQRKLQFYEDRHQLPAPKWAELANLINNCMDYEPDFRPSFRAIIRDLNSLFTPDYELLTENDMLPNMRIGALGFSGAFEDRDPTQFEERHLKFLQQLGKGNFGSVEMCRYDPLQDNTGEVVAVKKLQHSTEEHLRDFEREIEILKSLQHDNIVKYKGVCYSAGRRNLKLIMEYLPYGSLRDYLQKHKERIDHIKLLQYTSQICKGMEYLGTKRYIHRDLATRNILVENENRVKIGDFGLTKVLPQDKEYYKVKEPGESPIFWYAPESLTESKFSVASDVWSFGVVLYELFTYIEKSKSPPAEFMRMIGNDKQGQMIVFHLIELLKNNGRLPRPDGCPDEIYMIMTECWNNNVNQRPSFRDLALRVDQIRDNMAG
Summary of the method: as §1

[4] = molecular target: T4, Recombinant TYK2 (Homo sapiens, UniProt P29597); test: JAK biochemical assay (LANCE Ultra TR-FRET), TYK2; settings: recombinant TYK2, TR-FRET; read-out: Biochemical Assay (μM) TYK2
T4 construct: purchased Carna Biosciences
T4 sequence (P29597 whole entry): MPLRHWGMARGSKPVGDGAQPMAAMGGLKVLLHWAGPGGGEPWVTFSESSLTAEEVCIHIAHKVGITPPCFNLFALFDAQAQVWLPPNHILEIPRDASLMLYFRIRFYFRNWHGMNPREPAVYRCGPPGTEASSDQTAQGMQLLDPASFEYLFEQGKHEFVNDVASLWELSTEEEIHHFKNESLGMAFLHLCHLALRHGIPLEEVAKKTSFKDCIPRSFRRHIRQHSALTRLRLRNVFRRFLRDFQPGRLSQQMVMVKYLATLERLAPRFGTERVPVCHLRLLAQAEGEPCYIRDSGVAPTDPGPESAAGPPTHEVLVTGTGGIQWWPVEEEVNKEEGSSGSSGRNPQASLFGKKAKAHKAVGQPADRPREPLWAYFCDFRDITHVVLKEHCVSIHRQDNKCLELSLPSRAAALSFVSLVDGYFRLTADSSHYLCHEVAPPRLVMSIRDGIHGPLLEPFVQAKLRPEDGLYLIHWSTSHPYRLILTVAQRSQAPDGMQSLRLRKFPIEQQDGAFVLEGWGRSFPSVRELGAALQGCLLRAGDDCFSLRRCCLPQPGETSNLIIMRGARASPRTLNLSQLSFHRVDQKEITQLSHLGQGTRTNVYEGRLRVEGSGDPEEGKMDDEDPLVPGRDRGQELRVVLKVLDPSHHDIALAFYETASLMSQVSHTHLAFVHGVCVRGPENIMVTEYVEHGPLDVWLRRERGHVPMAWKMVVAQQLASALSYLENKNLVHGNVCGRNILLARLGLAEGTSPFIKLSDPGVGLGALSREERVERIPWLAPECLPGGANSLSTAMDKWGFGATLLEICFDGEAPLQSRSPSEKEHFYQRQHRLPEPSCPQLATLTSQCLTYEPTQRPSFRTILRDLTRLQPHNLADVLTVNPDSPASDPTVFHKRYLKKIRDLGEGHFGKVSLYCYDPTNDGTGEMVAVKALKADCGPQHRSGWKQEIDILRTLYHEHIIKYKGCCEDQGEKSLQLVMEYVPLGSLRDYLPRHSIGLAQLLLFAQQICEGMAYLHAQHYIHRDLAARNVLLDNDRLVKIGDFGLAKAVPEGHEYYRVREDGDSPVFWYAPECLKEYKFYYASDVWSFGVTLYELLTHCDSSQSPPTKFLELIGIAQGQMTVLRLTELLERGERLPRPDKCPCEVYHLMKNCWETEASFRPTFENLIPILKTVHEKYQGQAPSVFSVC
Summary of the method: as §1

[5] = system: STAT3 phosphorylation by IL-6 in TF-1 cells; test: JAK cellular assay: STAT3 phosphorylation by IL-6 in TF-1 cells (HTRF); type: cell-based; settings: IL-6 30 ng/ml, pSTAT3 HTRF, read-out: Cell Based Assay (μM) TF-1/IL-6/pSTAT3
Protocol: TF-1 cells were starved overnight in OptiMEM medium with 0.5% charcoal stripped fetal bovine serum, 0.1 mM nonessential amino acids (NEAA), 1 mM sodium pyruvate and without phenol red in CO2 incubator maintained at 37° c. Next day, cells were resuspended in RPMI without phenol red and dispensed into a 96 well plate at a final cell density of 1,20,000 cells per well. Compounds were diluted in DMSO and added to cells and incubated for 30 minutes in CO2 incubator maintained at 37° c. Final DMSO concentration in cell based assay was 0.2%. Human recombinant cytokines, IL-6 (30 ng/ml) and GMCSF (5 ng/ml) were added to the plate containing cells along with compound and incubated for 20 minutes with gentle tapping at every 5 minutes once. Compound mediated effects on STAT3 and STAT5 phosphorylation was measured in the lysates prepared by using CISBIO pSTAT3 and pSTAT5 detection kits by HTRF method. Background signal obtained from cells which were not activated with cytokines, was subtracted from vehicle controls and compound treated wells.

**Q.** `CC(NC(=O)n1cc(-c2ccnc3[nH]c(=O)[nH]c23)cn1)C(F)(F)F` (stereo not shown) [Example 1030, N-(1,1,1-trifluoropropan-2-yl)-4-(2,3-dihydro-2-oxo-1H-imidazo[4,5-b]pyridin-7-yl)-1H-pyrazole-1-carboxamide] was tested. Which IC50 [1] did it give?
**A.** 0.039 µM

**Q.** What about the IC50 [2] of the same compound?
**A.** 0.43 µM

**Q.** What about the IC50 [3] of the same compound?
**A.** 0.066 µM

**Q.** What about the IC50 [4] of the same compound?
**A.** 0.093 µM

**Q.** What about the IC50 ([5]; Homo sapiens, TF-1, TF-1 cells) of the same compound?
**A.** 10 µM

**Q.** What does the source list for `N#CC1(NC(=O)n2cc(-c3ccnc4[nH]c(=O)[nH]c34)cn2)CC1` [Example 1032, N-(1-cyanocyclopropyl)-4-(2,3-dihydro-2-oxo-1H-imidazo[4,5-b]pyridin-7-yl)-1H-pyrazole-1-carboxamide]?
**A.** IC50 [1]: < 0.5 µM; IC50 [2]: < 0.5 µM; IC50 [3]: < 0.5 µM; IC50 [4]: < 0.5 µM; IC50 ([5]; Homo sapiens, TF-1, TF-1 cells): > 10 µM

**Q.** Which results are given for `N#CCC(NC(=O)n1cc(-c2ccnc3[nH]c(=O)[nH]c23)cn1)C1CCCC1` (stereo not shown) [Example 1039, N-(2-cyano-1-cyclopentylethyl)-4-(2,3-dihydro-2-oxo-1H-imidazo[4,5-b]pyridin-7-yl)-1H-pyrazole-1-carboxamide]?
**A.** IC50 [1]: < 0.5 µM; IC50 [3]: < 0.5 µM; IC50 [4]: < 0.5 µM; IC50 ([5]; Homo sapiens, TF-1, TF-1 cells): 10 µM

**Q.** How did the IC50 [1] turn out when `N#CCC(=O)N1CC(C(O)(c2ccc(-n3cc(-c4ccnc5[nH]cnc45)cn3)nc2)C(F)(F)F)C1` (stereo not shown) [Example 1245, 3-(3-(1-(6-(4-(3H-imidazo[4,5-b]pyridin-7-yl)-1H-pyrazol-1-yl)pyridin-3-yl)-2,2,2-trifluoro-1-hydroxyethyl)azetidin-1-yl)-3-oxopropanenitrile] was run?
**A.** > 0.001 µM

**Q.** And the IC50 [2]?
**A.** > 0.003 µM

**Q.** And the IC50 [3]?
**A.** > 0.03 µM

**Q.** What about the IC50 [4] of the same compound?
**A.** > 1 µM

**Q.** What about the IC50 ([5]; Homo sapiens, TF-1, TF-1 cells) of the same compound?
**A.** > 1 µM

**Q.** How did the IC50 [1] turn out when `O=S(=O)(CCC(c1ccc(-n2cc(-c3ccnc4[nH]cnc34)cn2)nc1)C(F)(F)F)C1CC1` (stereo not shown) [Example 1139, 7-(1-(5-(4-(cyclopropylsulfonyl)-1,1,1-trifluorobutan-2-yl)pyridin-2-yl)-1H-pyrazol-4-yl)-3H-imidazo[4,5-b]pyridine] was run?
**A.** > 0.5 µM

**Q.** And the IC50 [2]?
**A.** > 0.1 µM

**Q.** What about the IC50 [3] of the same compound?
**A.** > 0.5 µM

**Q.** And the IC50 [4]?
**A.** > 1 µM

**Q.** And the IC50 ([5]; Homo sapiens, TF-1, TF-1 cells)?
**A.** 1 µM

**Q.** How did the IC50 [1] turn out when `O=C(NC(C1CCCC1)C(F)(F)F)n1cc(-c2ccnc3[nH]c(=O)[nH]c23)cn1` (stereo not shown) [Example 1041, N-(1-cyclopentyl-2,2,2-trifluoroethyl)-4-(2,3-dihydro-2-oxo-1H-imidazo[4,5-b]pyridin-7-yl)-1H-pyrazole-1-carboxamide] was run?
**A.** > 1 µM

**Q.** What about the IC50 [2] of the same compound?
**A.** > 10 µM

**Q.** What about the IC50 [3] of the same compound?
**A.** > 1 µM

**Q.** And the IC50 [4]?
**A.** > 1 µM

**Q.** And the IC50 ([5]; Homo sapiens, TF-1, TF-1 cells)?
**A.** > 10 µM

**Q.** Which results are given for `CC(C)C(C#N)NC(=O)n1cc(-c2ccnc3[nH]c(=O)[nH]c23)cn1` (stereo not shown) [Example 1044, N-(1-cyano-2-methylpropyl)-4-(2,3-dihydro-2-oxo-1H-imidazo[4,5-b]pyridin-7-yl)-1H-pyrazole-1-carboxamide]?
**A.** IC50 [1]: < 0.5 µM; IC50 [2]: < 0.5 µM; IC50 [3]: < 0.5 µM; IC50 [4]: < 0.5 µM; IC50 ([5]; Homo sapiens, TF-1, TF-1 cells): 10 µM

**Q.** `N#CCc1ccc(-n2cc(-c3ccnc4[nH]cnc34)cn2)nc1` [Example 1082, 2-(6-(4-(3H-imidazo[4,5-b]pyridin-7-yl)-1H-pyrazol-1-yl)pyridin-3-yl)acetonitrile hydrochloride] was tested. Which IC50 [1] did it give?
**A.** < 0.5 µM

**Q.** And the IC50 [2]?
**A.** < 0.5 µM

**Q.** And the IC50 [3]?
**A.** < 0.5 µM

**Q.** What about the IC50 ([5]; TF-1 cells, hydrochloride) of the same compound?
**A.** > 1 µM

**Q.** Which IC50 [4] does the source give for `O=C(NCC(F)(F)F)Nc1ccc(-c2ccnc3[nH]c(=O)[nH]c23)cn1` [Example 1005, 1-(2,2,2-trifluoroethyl)-3-(5-(2,3-dihydro-2-oxo-1H-imidazo[4,5-b]pyridin-7-yl)pyridin-2-yl)urea] here?
**A.** > 1 µM

**Q.** What about the IC50 ([5]; Homo sapiens, TF-1, TF-1 cells) of the same compound?
**A.** > 10 µM
